In patent publication US6933260B2, “Avermectin B1 derivatives having an aminosulfonyloxy substituent in the 4′-position” (Syngenta Crop Protection, Inc., priority 2001, dated 2005):

Legend:
Assay type in all cases: in vivo
Plutella xylostella = assay: Action against Plutella xylostella caterpillars (spray on cabbage plants); conditions: 72 h, 12.5 ppm spray, caterpillars in the first stage, 3 days, read-out: percentage reduction in population and percentage reduction in feeding damage (% activity)
Procedure: Young cabbage plants are sprayed with an aqueous emulsion spray mixture comprising 12.5 ppm of test compound. After the spray-coating has dried, the cabbage plants are populated with 10 caterpillars of Plutella xylostella in the first stage and placed in a plastics container. Evaluation is made 3 days later. The percentage reduction in population and the percentage reduction in feeding damage (% activity) are determined by comparing the number of dead caterpillars and the feeding damage on the treated plants with that on the untreated plants.

Spodoptera littoralis = assay: Action against Spodoptera littoralis (foliar spray on soybean plants); conditions: 72 h, 12.5 ppm spray, caterpillars in the first stage, 3 days, read-out: percentage reduction in population and percentage reduction in feeding damage (% activity)
Procedure: Young soybean plants are sprayed with an aqueous emulsion spray mixture comprising 12.5 ppm of test compound and, after the spray-coating has dried, the plants are populated with 10 caterpillars of Spodoptera littoralis in the first stage and then placed in a plastics container. 3 days later, the percentage reduction in population and the percentage reduction in feeding damage (% activity) are determined by comparing the number of dead caterpillars and the feeding damage on the treated plants with that on untreated plants.

Tetranychus urticae = assay: Action against Tetranychus urticae (spray on bean plants); conditions: 144 h, 12.5 ppm spray, mixed population, 6 days at 25° C., read-out: percentage reduction in population (% activity)
Procedure: Young bean plants are populated with a mixed population of Tetranychus urticae and sprayed one day later with an aqueous emulsion spray mixture comprising 12.5 ppm of test compound. The plants are incubated for 6 days at 25° C. and subsequently evaluated. The percentage reduction in population (% activity) is determined by comparing the number of dead eggs, larvae and adults on the treated plants with that on untreated plants.

Diabrotica balteata = assay: Action against Diabrotica balteata (spray on maize seedlings); conditions: 144 h, 12.5 ppm spray, larvae in the second stage, 6 days, read-out: percentage reduction in population (% activity)
Procedure: Maize seedlings are sprayed with an aqueous emulsion spray mixture comprising 12.5 ppm of the test compound and, after the spray-coating has dried, the maize seedlings are populated with 10 Diabrotica balteata larvae in the second stage and then placed in a plastics container. 6 days later, the percentage reduction in population (% activity) is determined by comparing the number of dead larvae on the treated plants with that on untreated plants.

Measured: inhibition at 12.5 ppm

CCC(C)[C@H]1O[C@]2(C=C[C@@H]1C)C[C@@H]1C[C@@H](C/C=C(\C)[C@@H](O[C@H]3C[C@H](OC)[C@@H](O[C@H]4C[C@H](OC)[C@@H](OS(N)(=O)=O)[C@H](C)O4)[C@H](C)O3)[C@@H](C)/C=C/C=C3\CO[C@@H]4[C@H](O)C(C)=C[C@@H](C(=O)O1)[C@]34O)O2 (some centres unmarked) [P.1, 4″-sulfamoyloxy-avermectin B1]
> 80%: all assays above

CCC(C)[C@H]1O[C@]2(C=C[C@@H]1C)C[C@@H]1C[C@@H](C/C=C(\C)[C@@H](O[C@H]3C[C@H](OC)[C@@H](O[C@H]4C[C@H](OC)[C@@H](OS(=O)(=O)NC)[C@H](C)O4)[C@H](C)O3)[C@@H](C)/C=C/C=C3\CO[C@@H]4[C@H](O)C(C)=C[C@@H](C(=O)O1)[C@]34O)O2 (some centres unmarked) [P.2, 4″-methylaminosulfonyloxy-avermectin B1]
> 80%: all assays above

CCNS(=O)(=O)O[C@H]1[C@H](C)O[C@@H](O[C@H]2[C@H](C)O[C@@H](O[C@@H]3/C(C)=C/C[C@@H]4C[C@@H](C[C@]5(C=C[C@H](C)[C@@H](C(C)CC)O5)O4)OC(=O)[C@@H]4C=C(C)[C@@H](O)[C@H]5OC/C(=C\C=C\[C@@H]3C)[C@]54O)C[C@@H]2OC)C[C@@H]1OC (some centres unmarked) [P.3, 4″-ethylaminosulfonyloxy-avermectin B1]
> 80%: Plutella xylostella | Tetranychus urticae | Diabrotica balteata

CCC(C)[C@H]1O[C@]2(C=C[C@@H]1C)C[C@@H]1C[C@@H](C/C=C(\C)[C@@H](O[C@H]3C[C@H](OC)[C@@H](O[C@H]4C[C@H](OC)[C@@H](OS(=O)(=O)N(C)C)[C@H](C)O4)[C@H](C)O3)[C@@H](C)/C=C/C=C3\CO[C@@H]4[C@H](O)C(C)=C[C@@H](C(=O)O1)[C@]34O)O2 (some centres unmarked) [P.7, 4″-dimethylaminosulfonyloxy-avermectin B1]
> 80%: Plutella xylostella | Tetranychus urticae | Diabrotica balteata
